These results are taken from ChEMBL document CHEMBL4483862, “Open-source discovery of chemical leads for next-generation chemoprotective antimalarials” (2018).

The experiment relates to Plasmodium berghei. The experiment can be described thus: Luciferase/luciferin-expressing antifolate-resistant parasites were used to infect a culture of HepG2 cells that were pre-incubated with compounds. Infected hepatocytes emit light due to the luciferase reaction. Assay results are presented as the percent inhibition of light emission compared to control. […]. The class given is functional. To be noted: sporozoite; for IC90: read-out: LUCIFERASE INFECTION ASSAY - IC90.

Where [1] appears, read: read-out: LUCIFERASE INFECTION ASSAY - IC50.

As a reminder, the IC50 is the point on the concentration scale where inhibition reaches its midpoint. As a reminder, the IC90 is the point of the concentration-response curve where the effect stands at 90%. As to `O=C(OCN1C(=O)c2ccccc2C1=O)c1ccc(OCC2CCCO2)cc1` (configuration not stated), the concentration for an effect of 90% (IC90) is > 10 µM. For the same compound, under setting [1], the concentration for half-maximal inhibition (IC50) is > 10 µM.
As to `Cc1ccc(Cn2ccs/c2=N/C(=O)c2cc3c(s2)CCCCC3)cc1`, the IC90 was found to be 0.491 µM. The IC50 (PBLUC_HILL_SLOPE 1.2, PBLUC_R_SQUARED 0.823, read-out: LUCIFERASE INFECTION ASSAY - IC50) amounted to 0.0784 µM.
For the compound `Cc1ccc2c(Cl)cc(Cl)c(Oc3ncnc4scc(-c5ccc(Cl)cc5)c34)c2n1`, the IC90 is > 10 µM. Where the note is “PBLUC_HILL_SLOPE 0.397, PBLUC_R_SQUARED 0.123, read-out: LUCIFERASE INFECTION ASSAY - IC50”, the IC50 is > 10 µM.
Turning to `CC(C)(C)c1ccc(-c2nnc(SCC(=O)Nc3sccc3C(N)=O)n2C2CCCC2)cc1`, the IC90 is > 10 µM. The IC50 (HEPG2TOX_HILL_SLOPE 7.51, 0.572, HEPG2TOX_R_SQUARED 0.693, 0.490, PBLUC_HILL_SLOPE 1.93, PBLUC_R_SQUARED 0.568, read-out: LUCIFERASE INFECTION ASSAY - IC50) was 4.92 µM.
As for `CC(C)c1ccc(OCC(=O)NC2CCCCCC2)cc1`, the concentration for an effect of 90% (IC90) was > 11.4 µM. For the same compound, the IC50 under setting [1] was > 11.4 µM.
As to `O=C(Nc1ccc(F)cc1F)c1cc(Br)ccc1O`, the IC90 amounted to 9.77 µM. Also, for the setting “HEPG2TOX_HILL_SLOPE 11.9, HEPG2TOX_R_SQUARED 0.641, PBLUC_HILL_SLOPE 14.3, PBLUC_R_SQUARED 0.252, read-out: LUCIFERASE INFECTION ASSAY - IC50”, the IC50 is 8.37 µM.
In the case of `C1=C(c2ccccc2)CCN(Cc2cccc3cccnc23)C1`, the IC90 was found to be 9.68 µM. Further, for the setting “HEPG2TOX_HILL_SLOPE 3.29, HEPG2TOX_R_SQUARED 0.953, PBLUC_HILL_SLOPE 4.04, PBLUC_R_SQUARED 0.237, read-out: LUCIFERASE INFECTION ASSAY - IC50”, the IC50 stood at 5.62 µM.
As for `Cn1c(NCc2ccccc2)nc2cnc(-c3ccc4ccccc4c3)cc21`, the concentration for an effect of 90% (IC90) was found to be 9.43 µM. Also, the 50% inhibitory concentration (IC50) (HEPG2TOX_HILL_SLOPE 9.86, HEPG2TOX_R_SQUARED 0.539, PBLUC_HILL_SLOPE 12.2, PBLUC_R_SQUARED 0.511, read-out: LUCIFERASE INFECTION ASSAY - IC50) turned out to be 7.88 µM.
With `Clc1ccc2c(NCc3ccccc3)ccnc2c1`, the IC90 is 4.19 µM. Further, for the setting “PBLUC_HILL_SLOPE 8.08, PBLUC_R_SQUARED 0.339, read-out: LUCIFERASE INFECTION ASSAY - IC50”, the IC50 is 3.19 µM.
As to `C/C(=N\Nc1c(Cl)cc(Cl)cc1Cl)c1ccc(N2CCOCC2)cc1`, the concentration for an effect of 90% (IC90) is > 10 µM. The half-maximal inhibitory concentration (IC50) under setting [1] worked out at 4.84 µM.
The matching figures for `O=C(NC(c1ccccc1)c1ccccc1)[C@H]1C[C@H](O)[C@@H](CO)O1`: > 10.1 µM and > 10.1 µM.
For `O=C(CSc1ccc(C(F)(F)F)cn1)Nc1cc(C(F)(F)F)cc(C(F)(F)F)c1` the same measures were > 7.36 µM and > 7.36 µM.
`CC(C)NC(=S)N/N=C1\C(=O)Nc2ccc(C(C)C)cc21`: the IC90 amounted to 4.02 µM. For the same compound, the 50% inhibitory concentration (IC50) (FFLUC_HILL_SLOPE 3.36, FFLUC_R_SQUARED 0.392, HEPG2TOX_HILL_SLOPE 1.41, HEPG2TOX_R_SQUARED 0.93, PBLUC_HILL_SLOPE 4.04, PBLUC_R_SQUARED 0.837, read-out: LUCIFERASE INFECTION ASSAY - IC50) was 2.33 µM.
Consider `Cc1cc(Br)c(NC(=S)NC(=O)C(C)(C)C)c(Br)c1`, for which the concentration for an effect of 90% (IC90) is > 8.09 µM. Further, the IC50 (HEPG2TOX_HILL_SLOPE 2.38, HEPG2TOX_R_SQUARED 0.209, read-out: LUCIFERASE INFECTION ASSAY - IC50) was > 8.09 µM.
Regarding `CCC(Sc1ncnc2sc(C)c(C)c12)C(=O)Nc1cc(C)on1` (configuration not stated), the IC90 is > 10 µM. Also, the half-maximal inhibitory concentration (IC50) (PBLUC_HILL_SLOPE 4.56, PBLUC_R_SQUARED 0.361, read-out: LUCIFERASE INFECTION ASSAY - IC50) was determined as 9.74 µM.
For `O=C(c1ccc(Cl)cc1)N1CCCC(C(=O)N2CCN(Cc3ccc4c(c3)CCO4)CC2)C1` (configuration not stated), the IC90 was > 10 µM. Moreover, the half-inhibitory concentration (IC50) under setting [1] is > 10 µM.
With `Cc1cccc(C=C(C(=O)Nc2ccccc2Cl)C(=O)Nc2ccccc2Cl)c1`, the IC90 is > 10 µM. Moreover, under setting [1], the 50% inhibitory concentration (IC50) was > 10 µM.
Turning to `Cc1ccc(CN(C)c2ccc([N+](=O)[O-])cc2Cl)o1`, the concentration for an effect of 90% (IC90) was > 10 µM. The 50% inhibitory concentration (IC50) under setting [1] was > 10 µM.
For `Cc1c(Cl)cccc1-n1c(SCC(=O)N(CCC#N)c2ccccc2)nc2ccccc2c1=O`, the IC90 is > 10 µM. For the same compound, the half-inhibitory concentration (IC50) (PBLUC_HILL_SLOPE 15.9, PBLUC_R_SQUARED 0.269, read-out: LUCIFERASE INFECTION ASSAY - IC50) is 9.73 µM.
For the compound `C=CCN(C(=O)C1CCN(S(=O)(=O)c2cccs2)CC1)c1nc2c(s1)CCCC2`, the IC90 is > 10 µM. The concentration for half-maximal inhibition (IC50) under setting [1] was > 10 µM.
Consider `C=CCNC(=O)NCC(=O)Nc1ccc(OC)c(Cl)c1`, for which the IC90 was > 10 µM. Further, under setting [1], the IC50 was > 10 µM.
`Cc1cccn2c(C(=O)NC3CCCCC3)c(NC(=O)c3cccc(F)c3)nc12`: the IC90 was > 8.37 µM. Moreover, the IC50 under setting [1] was > 8.37 µM.
For `CCN(CC)S(=O)(=O)c1ccc(/C=C/C(=O)N2CC=C(c3ccccc3)CC2)cc1`, the IC90 was > 10 µM. Also, the half-maximal inhibitory concentration (IC50) under setting [1] is > 10 µM.
Consider `CCOc1cccc(-c2cn3c(-c4cccc(CO)c4)cnc3cn2)c1`, for which the IC90 is > 9.55 µM. The IC50 (PBLUC_HILL_SLOPE 11.7, PBLUC_R_SQUARED 0.129, read-out: LUCIFERASE INFECTION ASSAY - IC50) amounted to 8.63 µM.
Regarding `CNc1nc2cnc(Nc3ccc(C(C)C)cc3)cc2n1-c1cc(OC)c(OC)c(OC)c1`, the 90% effect concentration (IC90) is > 10 µM. In addition, the 50% inhibitory concentration (IC50) (HEPG2TOX_HILL_SLOPE 3.92, HEPG2TOX_R_SQUARED 0.032, PBLUC_HILL_SLOPE 0.581, PBLUC_R_SQUARED 0.333, read-out: LUCIFERASE INFECTION ASSAY - IC50) was > 10 µM.
On to `Cc1cc(OCC(=O)/N=c2/sccn2C)c(C(C)C)cc1Cl`, for which the IC90 was > 10 µM. Also, the IC50 under setting [1] is > 10 µM.
Regarding `CC(C)N(CCNC(=O)c1ccc(CSc2nc3ccccc3s2)cc1)C(C)C`, the concentration for an effect of 90% (IC90) is 9.07 µM. Besides, the IC50 (PBLUC_HILL_SLOPE 4.35, PBLUC_R_SQUARED 0.48, read-out: LUCIFERASE INFECTION ASSAY - IC50) turned out to be 5.47 µM.
`COc1ccc(S(=O)(=O)Nc2ccc3c(c2)CS(=O)(=O)C3)cc1`: the IC90 was > 9.34 µM. For the same compound, the IC50 (FFLUC_HILL_SLOPE 6.24, FFLUC_R_SQUARED 0.631, read-out: LUCIFERASE INFECTION ASSAY - IC50) is > 9.34 µM.
Regarding `CC(C)c1ccc(-c2cnc3sc(NCCCO)nn23)cc1`, the IC90 is > 10.4 µM. Under setting [1], the IC50 was > 10.4 µM.
For the compound `CCCc1c(Cc2c(F)cccc2Cl)c(=O)oc2cc(OC(=O)COC)ccc12`, the concentration for an effect of 90% (IC90) was 3.31 µM. For the setting “PBLUC_HILL_SLOPE 13.6, PBLUC_R_SQUARED 0.599, read-out: LUCIFERASE INFECTION ASSAY - IC50”, the half-maximal inhibitory concentration (IC50) was determined as 2.82 µM.
For the compound `Cc1nn(-c2ccccc2Cl)c2sc(C(=O)NC3CCN(C(C)C)CC3)cc12`, the IC90 is > 10 µM. The half-maximal inhibitory concentration (IC50) (PBLUC_HILL_SLOPE 2.83, PBLUC_R_SQUARED 0.189, read-out: LUCIFERASE INFECTION ASSAY - IC50) is 5.04 µM.
As for `COc1cc(OC)cc(C(=O)Nc2nc(C(N)C3CCCCC3)cs2)c1` (configuration not stated), the 90% effect concentration (IC90) stood at 5.41 µM. Further, the 50% inhibitory concentration (IC50) under setting [1] came out at 5.25 µM.
Regarding `COc1ccc(-c2cnc3cnc(-c4ccccc4)cn23)cc1`, the IC90 was found to be 3.33 µM. Further, the IC50 (HEPG2TOX_HILL_SLOPE 1.56, HEPG2TOX_R_SQUARED 0.972, PBLUC_HILL_SLOPE 1.73, PBLUC_R_SQUARED 0.792, read-out: LUCIFERASE INFECTION ASSAY - IC50) worked out at 0.932 µM.
Regarding `c1cncc(-c2nc(Oc3ccc(-c4nnc5n4CCCCC5)cc3)c3ccccc3n2)c1`, the 90% effect concentration (IC90) is > 10 µM. Also, where the note is “PBLUC_HILL_SLOPE 11.7, PBLUC_R_SQUARED 0.282, read-out: LUCIFERASE INFECTION ASSAY - IC50”, the IC50 is > 10 µM.
With `Cc1nnc(Sc2ncnc3scc(-c4ccccc4)c23)s1`, the concentration for an effect of 90% (IC90) was determined as 6.88 µM. In addition, the 50% inhibitory concentration (IC50) (HEPG2TOX_HILL_SLOPE 11.3, HEPG2TOX_R_SQUARED 0.507, PBLUC_HILL_SLOPE 5.22, PBLUC_R_SQUARED 0.122, read-out: LUCIFERASE INFECTION ASSAY - IC50) was determined as 4.52 µM.
In the case of `N#Cc1cc(-c2ccccc2)nnc1NCc1ccc(Cl)cc1`, the IC90 was > 10.3 µM. Also, the concentration for half-maximal inhibition (IC50) (HEPG2TOX_HILL_SLOPE 2, HEPG2TOX_R_SQUARED 0.904, PBLUC_HILL_SLOPE 2.36, PBLUC_R_SQUARED 0.485, read-out: LUCIFERASE INFECTION ASSAY - IC50) was determined as 6.28 µM.
On to `Cc1cc2c(cc1C)NC(c1ccc(Br)cc1)C1C(=O)CCCC1=N2` (configuration not stated), for which the IC90 is > 8.31 µM. Besides, the IC50 (PBLUC_HILL_SLOPE 1.27, PBLUC_R_SQUARED 0.271, read-out: LUCIFERASE INFECTION ASSAY - IC50) amounted to 6.95 µM.
On to `Cc1cccc(-c2cn3c(-c4ccc(CO)cc4)cnc3cn2)c1C`, for which the IC90 is > 10 µM. For the setting “PBLUC_HILL_SLOPE 11.7, PBLUC_R_SQUARED 0.283, read-out: LUCIFERASE INFECTION ASSAY - IC50”, the IC50 stood at 8.31 µM.
For `CC(=O)Nc1ccc(-c2cnc3ccc(-c4ccc(S(C)(=O)=O)cc4)nn23)cc1`, the IC90 was determined as 7.89 µM. Further, the IC50 (HEPG2TOX_HILL_SLOPE 6.82, HEPG2TOX_R_SQUARED 0.682, PBLUC_HILL_SLOPE 2.96, PBLUC_R_SQUARED 0.544, read-out: LUCIFERASE INFECTION ASSAY - IC50) was 3.75 µM.
Turning to `COc1ccc(/C=C2\CCCc3c2nc2ncnn2c3-c2ccc(OC)cc2)cc1`, the IC90 was > 10 µM. Besides, under setting [1], the IC50 is > 10 µM.
Turning to `Cn1ccnc1C(=O)c1cc(SCC(=O)N2CCN(S(=O)(=O)c3ccc4ccccc4c3)CC2)nc2ccccc12`, the IC90 is > 10 µM. Also, the IC50 under setting [1] was > 10 µM.
